Source: patent publication US11878063B2, “Engineered ligands and uses thereof” (Children's Medical Center Corporation, priority 2019, dated 2024)

Tests used:
PTHR16E = biological target: T1, PTHR16E (Homo sapiens, UniProt Q03431, A83I/D81R/G76A/K80A/K82Q/P78E/R79L/S71Q/S73D/S75E/T74Q); test: cAMP induction in HEK293 cells stably expressing PTHR16E (6E/Ubc6e epitope tag in exon 2 segment); type: cell-based; details: maximal cAMP response, normalized
T1 construct: expressed in transfected cells
T1 sequence (Q03431 27-593 S71Q/S73D/T74Q/S75E/G76A/P78E/R79L/K80A/D81R/K82Q/A83I): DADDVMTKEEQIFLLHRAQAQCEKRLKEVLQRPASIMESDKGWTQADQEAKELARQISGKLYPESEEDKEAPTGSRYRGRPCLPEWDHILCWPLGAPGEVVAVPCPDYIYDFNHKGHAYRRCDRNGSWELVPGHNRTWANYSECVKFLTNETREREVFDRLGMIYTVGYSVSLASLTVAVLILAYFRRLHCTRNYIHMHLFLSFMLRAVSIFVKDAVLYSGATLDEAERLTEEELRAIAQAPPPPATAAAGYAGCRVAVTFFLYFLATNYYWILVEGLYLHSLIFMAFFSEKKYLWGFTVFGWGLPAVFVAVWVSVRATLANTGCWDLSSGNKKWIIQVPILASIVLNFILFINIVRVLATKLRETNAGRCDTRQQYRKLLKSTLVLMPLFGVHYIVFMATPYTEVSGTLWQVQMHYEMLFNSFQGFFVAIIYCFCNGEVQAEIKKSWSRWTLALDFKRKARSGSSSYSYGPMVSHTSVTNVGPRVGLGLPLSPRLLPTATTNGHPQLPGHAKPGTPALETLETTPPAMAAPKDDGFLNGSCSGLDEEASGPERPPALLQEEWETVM
Procedure: (§1) Measurement of cAMP response. These assays were performed as previously described^27. Briefly, HEK-293-derived cell lines that stably express the Glosensor cAMP reporter (Promega Corp.)^30 and PTHR1, a PTHR1 variant, or PTHR2 were seeded into white sided 96 well plates (50,000 cells/well) and grown to confluency. Confluent monolayers of cells were pre-incubated with CO2 independent medium containing D-luciferin (0.5 mM) at 37° C. until a stable baseline level of luminescence was established (20 min). Varying concentrations of ligands were then added, and the time course of luminescence response was recorded using BioTek plate reader.
(§2) Data calculations. Data were processed using Microsoft Excel and GraphPad Prism 6. Data from cAMP dose-response assays were analyzed using a sigmoidal dose-response model with variable slope. Data sets were statistically compared by using Student's t test (two-tailed) assuming unequal variances for the two sets.
(§3) The portion of PTHR1 encoded by exon 2 is not resolved in structural studies (FIG. 12—Panel d)^13, 14, 17, is not important for ligand binding^18, and in past work has been targeted as a site for receptor modification^18, 19. A construct was generated that encodes a PTHR1 variant in which a 14-residue fragment from exon 2 was replaced with a 14-mer epitope tag from the intracellular protein UBC6e (PTHR16E, FIG. 12—Panel d)^20. A receptor construct in which a pH-sensitive green fluorescent protein variant (GFP) was inserted into the portion of the receptor encoded by exon 2 (PTHR1GFP in FIGS. 17A to 17C)^19. Another version of PTHR1 in which yellow fluorescent protein (YFP) replaces the entire extracellular domain (PTHR1YFPΔECD, FIG. 12—Panel e)^21, was also used.

PTHR1GFP = test: cAMP induction in HEK293 cells stably expressing PTHR1GFP; type: cell-based, human
Procedure: The GFP-PTHR1 fusion was stably expressed in cells that respond to receptor engagement by activation of a cAMP-sensitive version of luciferase. Exposure of these transfectants to PTH(1-11) yielded the expected dose-response curve with half maximal stimulation at ˜200 nM.
as §1, with “reader. The maximal luminescence response (observed 12-16 min after ligand addition) was used to construct dose-response data sets (Table 4, FIGS. 22A to 22E).” for “reader.”
as §2
as §3, with “While there is no structural information for any VHH bound to PTHR1, a mode of interaction was envisioned between the receptor and VHH-PTH conjugates like that depicted in FIG. 12—Panel c. The” for “The”

CC[C@H](C)[C@H](NC(=O)[C@H](CCC(=O)O)NC(=O)[C@H](CO)NC(=O)[C@@H](NC(=O)[C@@H](N)CO)C(C)C)C(=O)N[C@@H](CCC(N)=O)C(=O)N[C@@H](CC(C)C)C(=O)N[C@@H](CCSC)C(=O)N[C@@H](Cc1cnc[nH]1)C(=O)N[C@@H](CC(N)=O)C(=O)N[C@@H](CC(C)C)C(=O)NCC(=O)N[C@@H](CCCCN)C(=O)N[C@@H](Cc1cnc[nH]1)C(=O)N[C@@H](CC(C)C)C(=O)N[C@@H](CC(N)=O)C(=O)N[C@@H](CO)C(=O)N[C@@H](CCSC)C(=O)N[C@@H](CCC(=O)O)C(=O)N[C@@H](CCCN=C(N)N)C(=O)N[C@H](C(=O)N[C@@H](CCC(=O)O)C(=O)N[C@@H](Cc1c[nH]c2ccccc12)C(=O)N[C@@H](CC(C)C)C(=O)N[C@@H](CCCN=C(N)N)C(=O)N[C@@H](CCCCN)C(=O)N[C@@H](CCCCN)C(=O)N[C@@H](CC(C)C)C(=O)N[C@@H](CCC(N)=O)C(=O)N[C@@H](CC(=O)O)C(=O)N[C@H](C(=O)N[C@@H](Cc1cnc[nH]1)C(=O)N[C@@H](CC(N)=O)C(=O)N[C@@H](Cc1ccccc1)C(=O)O)C(C)C)C(C)C [PTH(1-34)]
Max (normalized ± SD), hPTHR16E (PTHR16E): 1 ± 0.0
Max (normalized ± SD), hPTHR1GFP (PTHR1GFP; maximal cAMP response, normalized): 1.00 ± 0.00
EC50 (PTHR1GFP; mean ± SD, Inactive = response <5% of maximal, read-out: EC50, cAMP induction, hPTHR1GFP): 0.4 ± 0.8 nM
